Tests used:
[1] = target: T1, human DGAT1 (Homo sapiens, UniProt O75907); experiment: DGAT Scintillation Proximity Assay (SPA) with membranes of insect cells expressing human flagtag DGAT1; format: biochemical; settings: read-out: hDGAT1 IC50
T1 construct: made in house; host or cells: insect cells (sf9, sf21 or High Five) infected with baculovirus; total cell membranes
T1 sequence (O75907 1-488): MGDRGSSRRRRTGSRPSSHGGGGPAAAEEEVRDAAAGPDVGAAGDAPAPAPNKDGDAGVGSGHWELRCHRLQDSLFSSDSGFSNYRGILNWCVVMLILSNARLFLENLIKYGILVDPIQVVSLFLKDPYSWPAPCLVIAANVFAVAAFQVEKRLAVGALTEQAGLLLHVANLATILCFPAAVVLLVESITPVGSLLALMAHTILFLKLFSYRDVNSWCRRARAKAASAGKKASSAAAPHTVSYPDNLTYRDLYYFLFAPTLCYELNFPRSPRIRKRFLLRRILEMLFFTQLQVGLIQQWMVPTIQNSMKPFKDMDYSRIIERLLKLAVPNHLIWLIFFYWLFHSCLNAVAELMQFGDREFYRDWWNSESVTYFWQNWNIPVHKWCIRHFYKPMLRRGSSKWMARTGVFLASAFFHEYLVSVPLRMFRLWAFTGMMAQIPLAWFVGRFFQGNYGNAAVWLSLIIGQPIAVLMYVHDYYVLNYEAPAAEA
In short: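 Membranes (0.2 μg/well) from insect cells expressing human flag-tagged DGAT1 incubated with 10 μM compound and 200 μM dioleoyl glycerol substrate; mercuric chloride as inhibition control. Reaction stopped with WGA SPA beads in mercuric chloride, overnight bead coupling, then scintillation proximity signal read.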

| Compound | melting point [°C] | IC50 [1] [nM] |
| --- | --- | --- |
| CC1(C)Oc2ncnc(N)c2N=C1c1ccc([C@H]2CC[C@H](CCN3CCCCC3)CC2)cc1 [Example 2-82] | 209 to 210 | > 100 |
| CC1(C)Oc2ncnc(N)c2N=C1c1ccc([C@H]2CC[C@H](CCN3CCCC3)CC2)cc1 [Example 2-83] | 142 to 143 | > 100 |
| CC1(C)Oc2ncnc(N)c2N=C1c1ccc([C@H]2CC[C@H](CCN3CCC(O)CC3)CC2)cc1 [Example 2-84] | 217 to 218 | > 100 |
| CC1(C)Oc2ncnc(N)c2N=C1c1ccc([C@H]2CC[C@H](CCN3CCC(O)(c4ccccc4)CC3)CC2)cc1 [Example 2-85] | 115 to 116 | > 100 |
| CC1(C)Oc2ncnc(N)c2N=C1c1ccc([C@H]2CC[C@H](CCN3CCC(Cc4ccccc4)CC3)CC2)cc1 [Example 2-86] | 190 to 191 | > 100 |
| CC1(C)Oc2ncnc(N)c2N=C1c1ccc([C@H]2CC[C@H](CCN3CCC(CCO)CC3)CC2)cc1 [Example 2-87] | 221 to 222 | > 100 |
| CC1(C)Oc2ncnc(N)c2N=C1c1ccc([C@H]2CC[C@H](CCN3CCN(Cc4ccccc4)CC3)CC2)cc1 [Example 2-88] | 175 to 176 | > 100 |
| CC1(C)Oc2ncnc(N)c2N=C1c1ccc([C@H]2CC[C@H](SCC(=O)O)CC2)cc1 [Example 2-112] | > 250 | 10 to 100 |
| Cc1ncc(C[C@H]2CC[C@H](c3ccc(C4=Nc5c(N)ncnc5OC4(C)C)cc3)CC2)[nH]1 [Example 2-113] | 172 to 173 | 10 to 100 |
| CC(C)NC[C@H]1CC[C@H](c2ccc(C3=Nc4c(N)ncnc4OC3(C)C)cc2)CC1 [Example 2-114] | 250 | 10 to 100 |
| CCOC(=O)N1CCC(NC[C@H]2CC[C@H](c3ccc(C4=Nc5c(N)ncnc5OC4(C)C)cc3)CC2)CC1 [Example 2-115] | 127 to 135 | > 100 |
| CC1(C)Oc2ncnc(N)c2N=C1c1ccc([C@H]2CC[C@H](CN[C@H]3CC[C@H](O)CC3)CC2)cc1 [Example 2-116] | > 250 | 10 to 100 |
| CC1(C)Oc2nccc(N)c2N=C1c1ccc([C@H]2CC[C@H](CC(=O)O)CC2)cc1 [Example 2-117] | > 250 | 10 to 100 |
| Cc1ncc(C[C@H]2CC[C@H](c3ccc(C4=Nc5c(N)ncnc5OC4(C)C)cc3)CC2)s1 [Example 2-118] | 215 to 216 | 10 to 100 |
| CC1(C)Oc2ncnc(N)c2N=C1c1ccc([C@H]2CC[C@H](Cc3cnc(C(C)(C)C)[nH]3)CC2)cc1 [Example 2-119] | > 250 | 10 to 100 |
| CC1(C)Oc2ncnc(N)c2N=C1c1ccc([C@H]2CC[C@H](Cc3cnc(C4CC4)[nH]3)CC2)cc1 [Example 2-120] | 226 to 227 | 10 to 100 |
| CC1(C)Oc2ncnc(N)c2N=C1c1ccc([C@H]2CC[C@H](Cc3nc4cc(Cl)ccc4[nH]3)CC2)cc1 [Example 2-122] | > 230 | 10 to 100 |
| CC1(C)Oc2ncnc(N)c2N=C1c1ccc([C@H]2CC[C@H](Cc3cnc(-c4ccccc4)[nH]3)CC2)cc1 [Example 2-123] | 230 to 231 | 10 to 100 |
| CC1(C)Oc2ncnc(N)c2N=C1c1ccc([C@H]2CC[C@H](Cc3nc4cc(F)ccc4[nH]3)CC2)cc1 [Example 2-124] | > 230 | 10 to 100 |
| CC1(C)Oc2ncnc(N)c2N=C1c1ccc([C@@H]2CCC[C@H](CC(=O)O)C2)cc1 [Example 2-126] | 234 to 235 | 10 to 100 |

Further lines, results first:

| melting point [°C] | IC50 [1] [nM] | Compound |
| --- | --- | --- |
| 271 to 272 | 10 to 100 | CC1(C)Oc2ncnc(N)c2N=C1c1ccc([C@H]2CC[C@H](CC(O)C(F)(F)F)CC2)cc1 (some centres unmarked) [Example 2-80] |
| 113 to 115 | 10 to 100 | CN1CCN(C(=O)C[C@H]2CC[C@H](c3ccc(C4=Nc5c(N)ncnc5OC4(C)C)cc3)CC2)CC1 [Example 2-92] |
| 146 to 147 | 10 to 100 | CC1(C)Oc2ncnc(N)c2N=C1c1ccc([C@H]2CC[C@H](CC(=O)N3CCCCC3)CC2)cc1 [Example 2-93] |
| 232 to 233 | 10 to 100 | CC1(C)Oc2ncnc(N)c2N=C1c1ccc([C@H]2CC[C@H](CC(=O)N3CCCC3)CC2)cc1 [Example 2-94] |
| 199 to 200 | 10 to 100 | CC1(C)Oc2ncnc(N)c2N=C1c1ccc([C@H]2CC[C@H](CC(=O)N3CCOCC3)CC2)cc1 [Example 2-95] |
| 112 to 113 | 10 to 100 | CC1(C)Oc2ncnc(N)c2N=C1c1ccc([C@H]2CC[C@H](CC(=O)N3CCC(CCO)CC3)CC2)cc1 [Example 2-96] |
| 225 to 226 | 10 to 100 | CC1(C)Oc2ncnc(N)c2N=C1c1ccc([C@H]2CC[C@H](CC(=O)N3CCN(CCO)CC3)CC2)cc1 [Example 2-97] |
| 131 to 133 | 10 to 100 | CC(C)(CO)NC(=O)C[C@H]1CC[C@H](c2ccc(C3=Nc4c(N)ncnc4OC3(C)C)cc2)CC1 [Example 2-98] |
| 113 to 115 | 10 to 100 | CN(CCO)C(=O)C[C@H]1CC[C@H](c2ccc(C3=Nc4c(N)ncnc4OC3(C)C)cc2)CC1 [Example 2-99] |
| 184 to 185 | 10 to 100 | CC1(C)Oc2ncnc(N)c2N=C1c1ccc([C@H]2CC[C@H](CC(=O)N3CCC[C@H]3CO)CC2)cc1 [Example 2-100] |
| 237 to 239 | 10 to 100 | CC1(C)Oc2ncnc(N)c2N=C1c1ccc([C@H]2CC[C@H](CC(=O)N3CCC(O)C3)CC2)cc1 (some centres unmarked) [Example 2-101] |
| 214 to 215 | 10 to 100 | CCCNC(=O)C[C@H]1CC[C@H](c2ccc(C3=Nc4c(N)ncnc4OC3(C)C)cc2)CC1 [Example 2-102] |
| 231 to 232 | 10 to 100 | CC1(C)Oc2ncnc(N)c2N=C1c1ccc([C@H]2CC[C@H](CC(=O)N3CC[C@@H](O)C3)CC2)cc1 [Example 2-103] |
| 186 to 188 | 10 to 100 | CN(CC[C@H]1CC[C@H](c2ccc(C3=Nc4c(N)ncnc4OC3(C)C)cc2)CC1)C(=O)CO [Example 2-104] |
| > 250 | 10 to 100 | CN(C(=O)CO)[C@H]1CC[C@H](c2ccc(C3=Nc4c(N)ncnc4OC3(C)C)cc2)CC1 [Example 2-105] |
| 250 to 252 | 10 to 100 | CC1(C)Oc2ncnc(N)c2N=C1c1ccc([C@H]2CC[C@H](CC(=O)N3C[C@@H](O)[C@@H](O)C3)CC2)cc1 [Example 2-106] |
| 202 to 203 | 10 to 100 | CC1(C)Oc2ncnc(N)c2N=C1c1ccc([C@H]2CC[C@H](Cn3ccnc3)CC2)cc1 [Example 2-108] |
| > 230 | 10 to 100 | CC1(C)Oc2ncnc(N)c2N=C1c1ccc([C@H]2CC[C@H](Cc3nc4ccccc4[nH]3)CC2)cc1 [Example 2-109] |
| 155 to 156 | 10 to 100 | CC1(C)Oc2ncnc(N)c2N=C1c1ccc([C@H]2CC[C@H](CC(=O)CO)CC2)cc1 [Example 2-110] |
| > 250 | 10 to 100 | CC1(C)Oc2ncnc(N)c2N=C1c1ccc([C@H]2CC[C@H](CC(=O)N3CCNCC3)CC2)cc1.Cl.Cl [Example 2-111] |

From US7244727B2, “Fused bicyclic nitrogen-containing heterocycles” (Japan Tobacco Inc., priority 2002, dated 2007)
